System: spleen, thymus and bone marrow cells
Experiment: JP-8 jet fuel exposed mice, cell numbers (FIGS. 1-3)
Assay type: in vivo, C57BL6 mice
Details: 1 micromolar aerosol 15 minutes after each exposure
Text: Since mice are nose-breathers, they were exposed to the aerosol/vapor mixture via nose-only presentation while they were held in individual loading tubes. The tubes were nose-fitted to receiving adaptors that originated from the common anodized aluminum exposure chamber (volume 0.3 m^3, IN-TOX, Albuquerque, N. Mex.). Noses were positioned in the exposure ports to minimize systemic absorption that might occur during total body exposure or through the process of self-grooming after exposure. The mice were rotated on a daily basis through the 24-adaptor positions of the exposure chamber. This was done to minimize proximity to the jet fuel source as a variable in exposure concentration or composition. Passive entrainment of the jet fuel aerosol/vapor mix and room air through the IN-TOX chamber was conducted by vacuum (15 liters/min). The vacuum was applied to the exposure chamber on the side opposite the fuel source. Animal exposure ports not in use were sealed during the exposure period. Longitudinal controls were sham-exposed in a manner identical to those receiving jet fuel, except that only room air was introduced into the exposure chamber. The exposure chamber was thoroughly cleaned prior to the longitudinal control group's exposure.
The substance P aerosol therapy was performed at the completion of the JP-8 jet fuel exposure. The nebulizer was modified with clean hoses and a new sonication crucible. […] The substance P aerosol therapy was conducted for the same seven day period over a total time period of nine days as the JP-8 jet fuel exposure regimen.

## Substance P [SP]
JP-8 500 or 2500 mg/m^3 7 days
  effect on spleen cell number (FIG. 1): totally reverse the effect of the jet fuel on the spleen cell number
JP-8 exposed mice
  effect on bone marrow cells (FIG. 3): augments the stimulation substantially
  effect on thymus cell number (FIG. 2): substantially reverses the effect on cell number
